Molecules are shown by their SMILES. A value given as a limit tells only on which side of the number the result lay.

The target in assay [1] is T1, E-selectin/IgG construct (Homo sapiens, UniProt P16581).
T1 construct: fused on or other part: IgG Fc part (human, since it is captured by goat anti-human Fc antibody), fused on as a capture handle
T1 sequence (P16581 22-175 limits assumed): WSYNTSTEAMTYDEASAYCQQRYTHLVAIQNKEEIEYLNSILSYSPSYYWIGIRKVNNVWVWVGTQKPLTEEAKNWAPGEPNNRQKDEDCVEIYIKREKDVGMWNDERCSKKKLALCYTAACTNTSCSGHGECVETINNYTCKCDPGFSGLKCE
Kind of assay: BIAcore SPR ranking procedure at a single concentration (relative binding affinity). Conditions: SPR signal at single concentration 0.05 μM divided by molecular weight, normalized to internal standard; KD larger than for reference compound 64, however below 135 nM; read-out: KD values (relative* binding affinities, ranking procedure). The procedure: (§1) The biological evaluation of the E-selectin antagonists was performed by surface plasmon resonance (SPR). For this purpose, an E-selectin/IgG construct was captured onto a BIAcore chip surface bearing covalently linked goat anti-human Fc specific antibody (Biacore Life Sciences, Uppsala, Sweden).
The ranking of the antagonists was performed in order to obtain qualitative information on the binding strength of twenty indole antagonists. For the ranking, SPR signals were recorded at a single concentration (0.05 μM) and divided by the molecular weight of the compounds. The result obtained was normalized to the response obtained with an internal standard (63) in order to avoid problems related to the measurement on different chips with different surfaces. DMSO calibration and double referencing were applied to correct bulk effects and other systematic artifacts (subtraction of reference surface and blank injection).

For assay [2], the target named is T1, E-selectin/IgG construct. Put plainly: BIAcore surface plasmon resonance (SPR)-based assay, serial dilutions of the ligand (absolute KD). Conditions: twofold serial dilutions, 600 s association/600 s dissociation, HBS-P + 20 mm calcium + DMSO 5% v/v, read-out: KD values (absolute binding affinities). The protocol:
as §1
Evaluation of E-Selectin Antagonists with Surface Plasmon Resonance (SPR)-Based Assay
Ten twofold serial dilutions of the ligand were non-randomly injected. The E-selectin antagonists were diluted in running buffer (HBS-P supplemented with […] calcium and DMSO 5% v/v). Antagonist dilutions were injected with a 600 s association time and 600 s dissociation time at a flow rate of 20 μL/min over the reference and the active flow cell. […] In addition, to prevent the presence of residual traces of compound, a blank injection was performed between each injection of ligand dilution. DMSO calibration and double referencing were applied to correct bulk effects and other systematic artifacts (subtraction of reference surface and blank injection).

In the case of `C[C@@H]1O[C@@H](O[C@@H]2[C@@H](C)C[C@@H](C(=O)NCc3cn(CCn4ccc5cc([N+](=O)[O-])ccc54)nn3)C[C@H]2O[C@@H]2O[C@H](CO)[C@H](O)[C@H](O[C@@H](CC3CCCCC3)C(=O)O)[C@H]2OC(=O)c2ccccc2)[C@@H](O)[C@H](O)[C@@H]1O` [Product 57, (1R,3R,4R,5S)-3-[2-O-Benzoyl-3-O-((1S)-1-carboxy-2-cyclohexyl-ethyl)-(β-D-galactopyranosyl)oxy]-4-[(α-L-fucopyranosyl)oxy]-5-methyl-N-({1-[2-(5-nitro-1H-indol-1-yl)ethyl]-1H-1,2,3-triazol-4-yl}methyl)cyclohexanecarboxamide], the Kd at E-selectin/IgG construct [1] was greater than 89 nM.
For `C[C@@H]1O[C@@H](O[C@@H]2[C@@H](C)C[C@@H](C(=O)NCc3cn(CCCn4ccc5cc([N+](=O)[O-])ccc54)nn3)C[C@H]2O[C@@H]2O[C@H](CO)[C@H](O)[C@H](O[C@@H](CC3CCCCC3)C(=O)O)[C@H]2OC(=O)c2ccccc2)[C@@H](O)[C@H](O)[C@@H]1O` [Product 58, (1R,3R,4R,5S)-3-[2-O-Benzoyl-3-O-((1S)-1-carboxy-2-cyclohexyl-ethyl)-(β-D-galactopyranosyl)oxy]-4-[(α-L-fucopyranosyl)oxy]-5-methyl-N-({1-[3-(5-nitro-1H-indol-1-yl)propyl]-1H-1,2,3-triazol-4-yl}methyl)cyclohexanecarboxamide], the Kd at E-selectin/IgG construct [2] came to 57 nM.
As for `C[C@@H]1O[C@@H](O[C@@H]2[C@@H](C)C[C@@H](C(=O)NCc3cn(CCCCn4ccc5cc([N+](=O)[O-])ccc54)nn3)C[C@H]2O[C@@H]2O[C@H](CO)[C@H](O)[C@H](O[C@@H](CC3CCCCC3)C(=O)O)[C@H]2OC(=O)c2ccccc2)[C@@H](O)[C@H](O)[C@@H]1O` [Product 59, (1R,3R,4R,5S)-3-[2-O-Benzoyl-3-O-((1S)-1-carboxy-2-cyclohexyl-ethyl)-(β-D-galactopyranosyl)oxy]-4-[(α-L-fucopyranosyl)oxy]-5-methyl-N-({1-[4-(5-nitro-1H-indol-1-yl)butyl]-1H-1,2,3-triazol-4-yl}methyl)cyclohexanecarboxamide], the Kd on E-selectin/IgG construct [1] is greater than 89 nM.
Take `C[C@@H]1O[C@@H](O[C@@H]2[C@@H](C)C[C@@H](C(=O)NCCc3cn(CCn4ccc5cc([N+](=O)[O-])ccc54)nn3)C[C@H]2O[C@@H]2O[C@H](CO)[C@H](O)[C@H](O[C@@H](CC3CCCCC3)C(=O)O)[C@H]2OC(=O)c2ccccc2)[C@@H](O)[C@H](O)[C@@H]1O` [Product 61, (1R,3R,4R,5S)-3-[2-O-Benzoyl-3-O-((1S)-1-carboxy-2-cyclohexyl-ethyl)-(β-D-galactopyranosyl)oxy]-4-[(α-L-fucopyranosyl)oxy]-5-methyl-N-(2-{1-[2-(5-nitro-1H-indol-1-yl)ethyl]-1H-1,2,3-triazol-4-yl}ethyl)cyclohexanecarboxamide]: at E-selectin/IgG construct [1], the Kd was greater than 89 nM.
In the case of `C[C@@H]1O[C@@H](O[C@@H]2[C@@H](C)C[C@@H](C(=O)NCCc3cn(CCCn4ccc5cc([N+](=O)[O-])ccc54)nn3)C[C@H]2O[C@@H]2O[C@H](CO)[C@H](O)[C@H](O[C@@H](CC3CCCCC3)C(=O)O)[C@H]2OC(=O)c2ccccc2)[C@@H](O)[C@H](O)[C@@H]1O` [Product 62, (1R,3R,4R,5S)-3-[2-O-Benzoyl-3-O-((1S)-1-carboxy-2-cyclohexyl-ethyl)-(β-D-galactopyranosyl)oxy]-4-[(α-L-fucopyranosyl)oxy]-5-methyl-N-(2-{1-[3-(5-nitro-1H-indol-1-yl)propyl]-1H-1,2,3-triazol-4-yl}ethyl)cyclohexanecarboxamide], on E-selectin/IgG construct [1], the Kd is greater than 89 nM.
Consider `C[C@@H]1O[C@@H](O[C@@H]2[C@@H](C)C[C@@H](C(=O)NCCc3cn(CCCCn4ccc5cc([N+](=O)[O-])ccc54)nn3)C[C@H]2O[C@@H]2O[C@H](CO)[C@H](O)[C@H](O[C@@H](CC3CCCCC3)C(=O)O)[C@H]2OC(=O)c2ccccc2)[C@@H](O)[C@H](O)[C@@H]1O` [Product 63, (1R,3R,4R,5S)-3-[2-O-Benzoyl-3-O-((1S)-1-carboxy-2-cyclohexyl-ethyl)-(β-D-galactopyranosyl)oxy]-4-[(α-L-fucopyranosyl)oxy]-5-methyl-N-(2-{1-[4-(5-nitro-1H-indol-1-yl)butyl]-1H-1,2,3-triazol-4-yl}ethyl)cyclohexanecarboxamide], for which the Kd at E-selectin/IgG construct [2] is 49 nM.
With `C[C@@H]1O[C@@H](O[C@@H]2[C@@H](C)C[C@@H](C(=O)NCCCc3cn(CCn4ccc5cc([N+](=O)[O-])ccc54)nn3)C[C@H]2O[C@@H]2O[C@H](CO)[C@H](O)[C@H](O[C@@H](CC3CCCCC3)C(=O)O)[C@H]2OC(=O)c2ccccc2)[C@@H](O)[C@H](O)[C@@H]1O` [Product 65, (1R,3R,4R,5S)-3-[2-O-Benzoyl-3-O-((1S)-1-carboxy-2-cyclohexyl-ethyl)-(β-D-galactopyranosyl)oxy]-4-[(α-L-fucopyranosyl)oxy]-5-methyl-N-(3-{1-[2-(5-nitro-1H-indol-1-yl)ethyl]-1H-1,2,3-triazol-4-yl}propyl)cyclohexanecarboxamide], on E-selectin/IgG construct [1], the Kd is greater than 89 nM.
For `C[C@@H]1O[C@@H](O[C@@H]2[C@@H](C)C[C@@H](C(=O)NCCCc3cn(CCCn4ccc5cc([N+](=O)[O-])ccc54)nn3)C[C@H]2O[C@@H]2O[C@H](CO)[C@H](O)[C@H](O[C@@H](CC3CCCCC3)C(=O)O)[C@H]2OC(=O)c2ccccc2)[C@@H](O)[C@H](O)[C@@H]1O` [Product 66, (1R,3R,4R,5S)-3-[2-O-Benzoyl-3-O-((1S)-1-carboxy-2-cyclohexyl-ethyl)-(β-D-galactopyranosyl)oxy]-4-[(α-L-fucopyranosyl)oxy]-5-methyl-N-(3-{1-[3-(5-nitro-1H-indol-1-yl)propyl]-1H-1,2,3-triazol-4-yl}propyl)cyclohexanecarboxamide], at E-selectin/IgG construct [2], the Kd came to 30 nM.
For `C[C@@H]1O[C@@H](O[C@@H]2[C@@H](C)C[C@@H](C(=O)NCCCc3cn(CCCCn4ccc5cc([N+](=O)[O-])ccc54)nn3)C[C@H]2O[C@@H]2O[C@H](CO)[C@H](O)[C@H](O[C@@H](CC3CCCCC3)C(=O)O)[C@H]2OC(=O)c2ccccc2)[C@@H](O)[C@H](O)[C@@H]1O` [Product 67, (1R,3R,4R,5S)-3-[2-O-Benzoyl-3-O-((1S)-1-carboxy-2-cyclohexyl-ethyl)-(β-D-galactopyranosyl)oxy]-4-[(α-L-fucopyranosyl)oxy]-5-methyl-N-(3-{1-[4-(5-nitro-1H-indol-1-yl)butyl]-1H-1,2,3-triazol-4-yl}propyl)cyclohexanecarboxamide], at E-selectin/IgG construct [1], the Kd is greater than 89 nM.
For the compound `C[C@@H]1O[C@@H](O[C@@H]2[C@@H](C)C[C@@H](C(=O)NCCCc3cn(CCCn4ccc5cc(N)ccc54)nn3)C[C@H]2O[C@@H]2O[C@H](CO)[C@H](O)[C@H](O[C@@H](CC3CCCCC3)C(=O)O)[C@H]2OC(=O)c2ccccc2)[C@@H](O)[C@H](O)[C@@H]1O` [Product 76, (1R,3R,4R,5S)—N-(3-{1-[3-(5-Amino-1H-indol-1-yl)propyl]-1H-1,2,3-triazol-4-yl}propyl)-3-[2-O-benzoyl-3-O-((1S)-1-carboxy-2-cyclohexyl-ethyl)-(β-D-galactopyranosyl)oxy]-4-[(α-L-fucopyranosyl)oxy]-5-methylcyclohexanecarboxamide], the Kd on E-selectin/IgG construct [1] is greater than 89 nM.
In the case of `CC(=O)Nc1ccc2c(ccn2CCCn2cc(CCCNC(=O)[C@@H]3C[C@H](C)[C@@H](O[C@@H]4O[C@@H](C)[C@@H](O)[C@@H](O)[C@@H]4O)[C@H](O[C@@H]4O[C@H](CO)[C@H](O)[C@H](O[C@@H](CC5CCCCC5)C(=O)O)[C@H]4OC(=O)c4ccccc4)C3)nn2)c1` [Product 77, (1R,3R,4R,5S)—N-(3-{1-[3-(5-Acetamido-1H-indol-1-yl)propyl]-1H-1,2,3-triazol-4-yl}propyl)-3-[2-O-benzoyl-3-O-((1S)-1-carboxy-2-cyclohexyl-ethyl)-(β-D-galactopyranosyl)oxy]-4-[(α-L-fucopyranosyl)oxy]-5-methylcyclohexanecarboxamide], on E-selectin/IgG construct [1], the Kd was greater than 89 nM.
For `C[C@@H]1O[C@@H](O[C@@H]2[C@@H](C)C[C@@H](C(=O)NCCCc3cn(CCCn4ccc5cc(NC(=O)COCCOCCN)ccc54)nn3)C[C@H]2O[C@@H]2O[C@H](CO)[C@H](O)[C@H](O[C@@H](CC3CCCCC3)C(=O)O)[C@H]2OC(=O)c2ccccc2)[C@@H](O)[C@H](O)[C@@H]1O` [Product 78, (1R,3R,4R,5S)—N-(3-{1-[3-(5-{2-[2-(2-Aminoethoxy)ethoxy]acetamido}-1H-indol-1-yl)propyl]-1H-1,2,3-triazol-4-yl}propyl)-3-[2-O-benzoyl-3-O-((1S)-1-carboxy-2-cyclohexyl-ethyl)-(β-D-galactopyranosyl)oxy]-4-[(α-L-fucopyranosyl)oxy]-5-methylcyclohexanecarboxamide], the Kd on E-selectin/IgG construct [1] was greater than 89 nM.

The values above are taken from patent publication US8921328B2, “E-selectin antagonists” (GlycoMimetics, Inc., priority 2010, dated 2014).
